Reference: the kinase profiling compilation of Christmann-Franck et al. (2016)

Experiments:
Assay in all cases: radiometric filter-binding kinase assay, Kinase HotSpot
Conditions in all cases: compound 0.5 µM; ATP 10 µM
PIM2 (human) = PIM2 (human) (UniProt Q9P1W9)
MET (human) = MET (human) (UniProt P08581)
EPHA7 (human) = EPHA7 (human) (UniProt Q15375)
PTK6 (human) = PTK6 (human) (UniProt Q13882)
TSSK2 (human) = TSSK2 (human) (UniProt Q96PF2)
PRKCD (human) = PRKCD (human) (UniProt Q05655)
CAMK2D (human) = CAMK2D (human) (UniProt Q13557)
FRK (human) = FRK (human) (UniProt P42685)
RPS6KB2 (human) = RPS6KB2 (human) (UniProt Q9UBS0)
STK11 (human) = STK11 (human) (UniProt Q15831)
PTK2B (human) = PTK2B (human) (UniProt Q14289)
TAOK2 (human) = TAOK2 (human) (UniProt Q9UL54)
MAP4K4 (human) = MAP4K4 (human) (UniProt O95819)
SRMS (human) = SRMS (human) (UniProt Q9H3Y6)
CAMK2G (human) = CAMK2G (human) (UniProt Q13555)
NEK9 (human) = NEK9 (human) (UniProt Q8TD19)
IKBKB (human) = IKBKB (human) (UniProt O14920)
PTK2 (human) = PTK2 (human) (UniProt Q05397)
MUSK (human) = MUSK (human) (UniProt O15146)
OXSR1 (human) = OXSR1 (human) (UniProt O95747)
CDC42BPA (human) = CDC42BPA (human) (UniProt Q5VT25)
MST4 (human) = MST4 (human) (UniProt Q9P289)
ULK1 (human) = ULK1 (human) (UniProt O75385)
NEK7 (human) = NEK7 (human) (UniProt Q8TDX7)
STK3 (human) = STK3 (human) (UniProt Q13188)
IKBKE (human) = IKBKE (human) (UniProt Q14164)
DYRK1B (human) = DYRK1B (human) (UniProt Q9Y463)
MAPK9 (human) = MAPK9 (human) (UniProt P45984)
GSK3B (human) = GSK3B (human) (UniProt P49841)
ROCK2 (human) = ROCK2 (human) (UniProt O75116)
NEK11 (human) = NEK11 (human) (UniProt Q8NG66)
EPHA1 (human) = EPHA1 (human) (UniProt P21709)
MATK (human) = MATK (human) (UniProt P42679)
PAK1 (human) = PAK1 (human) (UniProt Q13153)
MARK1 (human) = MARK1 (human) (UniProt Q9P0L2)
ADRBK1 (human) = ADRBK1 (human) (UniProt P25098)
RET (human) = RET (human) (UniProt P07949)
NUAK1 (human) = NUAK1 (human) (UniProt O60285)
CAMK1G (human) = CAMK1G (human) (UniProt Q96NX5)
PAK3 (human) = PAK3 (human) (UniProt O75914)
CSNK1G2 (human) = CSNK1G2 (human) (UniProt P78368)
FES (human) = FES (human) (UniProt P07332)

Sequence of PAK1 (human) (Q13153 whole entry, looked up): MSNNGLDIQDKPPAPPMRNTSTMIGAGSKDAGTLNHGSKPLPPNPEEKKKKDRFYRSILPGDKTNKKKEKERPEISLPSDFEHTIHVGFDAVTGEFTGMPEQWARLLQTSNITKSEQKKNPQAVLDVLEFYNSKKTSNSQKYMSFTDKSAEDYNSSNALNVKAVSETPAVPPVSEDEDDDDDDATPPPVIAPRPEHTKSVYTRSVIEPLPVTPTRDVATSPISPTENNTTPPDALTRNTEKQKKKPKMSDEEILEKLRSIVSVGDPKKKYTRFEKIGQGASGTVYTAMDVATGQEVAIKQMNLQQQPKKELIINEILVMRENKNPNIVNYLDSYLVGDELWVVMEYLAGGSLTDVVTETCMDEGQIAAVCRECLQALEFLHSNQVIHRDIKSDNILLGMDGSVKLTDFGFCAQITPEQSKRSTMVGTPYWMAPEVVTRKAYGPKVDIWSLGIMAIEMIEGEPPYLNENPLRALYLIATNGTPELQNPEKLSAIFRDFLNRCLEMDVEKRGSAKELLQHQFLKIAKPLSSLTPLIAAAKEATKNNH
Sequence of PTK6 (human) (Q13882 whole entry, looked up): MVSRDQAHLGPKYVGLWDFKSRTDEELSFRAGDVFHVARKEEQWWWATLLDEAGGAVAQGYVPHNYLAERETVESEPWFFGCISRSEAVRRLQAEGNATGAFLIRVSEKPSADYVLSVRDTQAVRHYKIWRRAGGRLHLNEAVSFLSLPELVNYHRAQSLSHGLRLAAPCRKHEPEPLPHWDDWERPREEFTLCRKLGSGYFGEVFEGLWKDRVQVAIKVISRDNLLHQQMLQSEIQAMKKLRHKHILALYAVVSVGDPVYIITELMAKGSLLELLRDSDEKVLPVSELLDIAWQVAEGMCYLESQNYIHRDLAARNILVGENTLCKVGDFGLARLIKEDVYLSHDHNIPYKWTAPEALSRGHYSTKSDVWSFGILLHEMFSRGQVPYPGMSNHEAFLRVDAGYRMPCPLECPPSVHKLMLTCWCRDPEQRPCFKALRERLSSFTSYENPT
Sequence of MATK (human) (P42679 whole entry, looked up): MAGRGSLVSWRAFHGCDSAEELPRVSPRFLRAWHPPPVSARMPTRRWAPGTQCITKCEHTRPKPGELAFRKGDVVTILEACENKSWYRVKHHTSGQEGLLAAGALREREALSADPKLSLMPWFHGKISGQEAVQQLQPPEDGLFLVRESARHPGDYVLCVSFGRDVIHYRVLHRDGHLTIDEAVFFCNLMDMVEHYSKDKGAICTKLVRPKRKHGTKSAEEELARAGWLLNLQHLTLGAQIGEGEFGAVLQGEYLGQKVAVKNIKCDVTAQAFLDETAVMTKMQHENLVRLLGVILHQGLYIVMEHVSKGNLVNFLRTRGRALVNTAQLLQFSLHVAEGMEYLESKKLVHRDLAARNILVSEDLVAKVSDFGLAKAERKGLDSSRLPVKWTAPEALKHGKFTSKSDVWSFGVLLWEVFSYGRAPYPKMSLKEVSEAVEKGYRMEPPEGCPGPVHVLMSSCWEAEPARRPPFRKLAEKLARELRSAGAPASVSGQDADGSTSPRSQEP
Sequence of OXSR1 (human) (O95747 whole entry, looked up): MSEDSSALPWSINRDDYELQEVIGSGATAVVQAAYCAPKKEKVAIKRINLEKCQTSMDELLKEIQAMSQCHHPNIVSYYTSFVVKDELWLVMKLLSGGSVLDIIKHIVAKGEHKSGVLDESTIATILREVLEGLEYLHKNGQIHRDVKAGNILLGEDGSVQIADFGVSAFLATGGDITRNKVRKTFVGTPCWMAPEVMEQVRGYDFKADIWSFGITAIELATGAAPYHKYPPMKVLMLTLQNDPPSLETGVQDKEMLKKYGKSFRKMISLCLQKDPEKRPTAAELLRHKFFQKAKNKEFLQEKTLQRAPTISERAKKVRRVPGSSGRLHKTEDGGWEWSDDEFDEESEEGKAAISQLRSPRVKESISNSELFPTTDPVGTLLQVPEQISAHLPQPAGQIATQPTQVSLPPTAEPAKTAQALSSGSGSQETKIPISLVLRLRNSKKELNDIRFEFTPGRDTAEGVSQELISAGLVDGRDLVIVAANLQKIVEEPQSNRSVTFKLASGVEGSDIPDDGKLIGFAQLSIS
Sequence of CAMK2G (human) (Q13555 whole entry, looked up): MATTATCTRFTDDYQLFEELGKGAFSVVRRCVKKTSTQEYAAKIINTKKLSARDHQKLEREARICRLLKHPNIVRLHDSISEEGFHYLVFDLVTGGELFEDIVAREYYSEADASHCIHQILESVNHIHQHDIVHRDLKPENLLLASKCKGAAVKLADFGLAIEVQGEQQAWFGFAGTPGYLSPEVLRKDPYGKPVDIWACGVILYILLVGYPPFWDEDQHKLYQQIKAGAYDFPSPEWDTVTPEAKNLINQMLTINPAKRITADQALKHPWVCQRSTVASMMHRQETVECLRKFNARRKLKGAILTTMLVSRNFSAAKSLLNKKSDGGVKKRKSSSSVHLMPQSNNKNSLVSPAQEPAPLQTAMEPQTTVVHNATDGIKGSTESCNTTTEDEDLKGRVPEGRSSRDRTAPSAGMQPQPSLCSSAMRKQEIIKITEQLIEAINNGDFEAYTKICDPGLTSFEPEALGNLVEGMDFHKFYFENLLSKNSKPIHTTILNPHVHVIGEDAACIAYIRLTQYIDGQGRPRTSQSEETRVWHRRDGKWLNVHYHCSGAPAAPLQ
Sequence of FRK (human) (P42685 whole entry, looked up): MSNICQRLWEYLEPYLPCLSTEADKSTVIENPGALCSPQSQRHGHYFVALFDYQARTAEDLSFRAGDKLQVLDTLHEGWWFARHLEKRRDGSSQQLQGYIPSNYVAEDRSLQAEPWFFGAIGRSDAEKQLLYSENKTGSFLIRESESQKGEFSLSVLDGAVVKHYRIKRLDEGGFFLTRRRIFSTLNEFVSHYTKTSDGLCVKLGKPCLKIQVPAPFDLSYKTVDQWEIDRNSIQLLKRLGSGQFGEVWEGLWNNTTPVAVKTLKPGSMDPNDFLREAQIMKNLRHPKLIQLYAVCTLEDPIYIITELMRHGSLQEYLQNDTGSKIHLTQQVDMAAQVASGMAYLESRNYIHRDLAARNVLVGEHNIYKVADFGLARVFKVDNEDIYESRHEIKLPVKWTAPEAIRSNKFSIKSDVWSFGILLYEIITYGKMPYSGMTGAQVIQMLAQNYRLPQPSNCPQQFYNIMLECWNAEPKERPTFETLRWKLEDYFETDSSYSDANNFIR
Sequence of ADRBK1 (human) (P25098 whole entry, looked up): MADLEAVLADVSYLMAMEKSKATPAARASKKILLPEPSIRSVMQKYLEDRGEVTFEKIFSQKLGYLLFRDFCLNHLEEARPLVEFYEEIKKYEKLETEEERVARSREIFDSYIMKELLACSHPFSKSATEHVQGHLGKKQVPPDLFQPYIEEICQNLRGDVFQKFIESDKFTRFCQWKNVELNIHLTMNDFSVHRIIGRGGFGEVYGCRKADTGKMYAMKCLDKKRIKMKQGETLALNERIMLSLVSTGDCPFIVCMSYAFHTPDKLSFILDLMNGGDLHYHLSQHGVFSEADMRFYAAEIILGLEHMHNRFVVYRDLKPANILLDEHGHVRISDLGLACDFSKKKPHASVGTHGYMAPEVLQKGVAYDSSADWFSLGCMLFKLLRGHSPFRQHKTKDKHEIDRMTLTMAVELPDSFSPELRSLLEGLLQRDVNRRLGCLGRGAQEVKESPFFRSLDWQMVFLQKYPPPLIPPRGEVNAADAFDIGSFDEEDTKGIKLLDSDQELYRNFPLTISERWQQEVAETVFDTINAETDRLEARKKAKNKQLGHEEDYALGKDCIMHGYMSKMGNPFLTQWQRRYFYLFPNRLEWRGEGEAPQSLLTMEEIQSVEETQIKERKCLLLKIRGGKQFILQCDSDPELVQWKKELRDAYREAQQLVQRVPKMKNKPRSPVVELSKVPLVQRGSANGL
Sequence of SRMS (human) (Q9H3Y6 whole entry, looked up): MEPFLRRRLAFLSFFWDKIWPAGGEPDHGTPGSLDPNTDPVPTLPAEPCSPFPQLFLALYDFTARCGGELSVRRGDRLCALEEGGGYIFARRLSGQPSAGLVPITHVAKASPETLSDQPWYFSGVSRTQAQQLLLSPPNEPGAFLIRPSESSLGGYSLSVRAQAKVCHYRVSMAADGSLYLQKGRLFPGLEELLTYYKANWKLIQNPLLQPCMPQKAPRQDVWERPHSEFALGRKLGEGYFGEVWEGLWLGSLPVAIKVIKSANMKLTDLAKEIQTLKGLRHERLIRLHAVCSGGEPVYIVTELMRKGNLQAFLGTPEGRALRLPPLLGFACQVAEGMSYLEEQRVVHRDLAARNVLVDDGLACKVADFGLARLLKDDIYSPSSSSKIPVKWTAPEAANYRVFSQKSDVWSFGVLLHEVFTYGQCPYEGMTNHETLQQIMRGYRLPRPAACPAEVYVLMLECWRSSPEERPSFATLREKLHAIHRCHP
Sequence of TSSK2 (human) (Q96PF2 whole entry, looked up): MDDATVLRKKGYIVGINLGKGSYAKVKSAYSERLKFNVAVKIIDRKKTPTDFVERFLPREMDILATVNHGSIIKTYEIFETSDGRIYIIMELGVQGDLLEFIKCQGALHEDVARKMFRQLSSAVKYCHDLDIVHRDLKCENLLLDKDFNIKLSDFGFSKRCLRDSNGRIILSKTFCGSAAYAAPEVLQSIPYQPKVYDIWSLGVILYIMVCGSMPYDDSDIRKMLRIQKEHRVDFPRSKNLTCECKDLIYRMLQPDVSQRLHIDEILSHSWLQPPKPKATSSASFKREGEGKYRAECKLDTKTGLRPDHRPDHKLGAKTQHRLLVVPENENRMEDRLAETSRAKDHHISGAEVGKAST
Sequence of PIM2 (human) (Q9P1W9 whole entry, looked up): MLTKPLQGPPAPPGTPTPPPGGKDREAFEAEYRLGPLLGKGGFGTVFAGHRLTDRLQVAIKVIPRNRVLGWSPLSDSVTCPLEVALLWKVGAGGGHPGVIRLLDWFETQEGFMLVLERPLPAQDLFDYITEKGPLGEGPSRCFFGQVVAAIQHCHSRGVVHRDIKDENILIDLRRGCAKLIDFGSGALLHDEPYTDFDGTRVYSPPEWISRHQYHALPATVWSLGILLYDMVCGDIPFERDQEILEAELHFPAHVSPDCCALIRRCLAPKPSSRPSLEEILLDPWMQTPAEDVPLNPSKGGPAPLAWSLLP

`Nc1nc(Nc2ccc(S(N)(=O)=O)cc2)nn1C(=O)c1c(F)cccc1F` gave a residual activity (PIM2 (human)) of 113%, a residual activity (MET (human)) of 75.3% and a residual activity (EPHA7 (human)) of 68.7%. It also gave a residual activity (PTK6 (human)) of 83.9%, a residual activity (TSSK2 (human)) of 103% and a residual activity (PRKCD (human)) of 81.2%. For the same compound, the residual activity (CAMK2D (human)) was 94.6%, the residual activity (FRK (human)) was 90.9% and the residual activity (RPS6KB2 (human)) was 104%. It also gave a residual activity (STK11 (human)) of 85.8%, a residual activity (PTK2B (human)) of 79.7% and a residual activity (TAOK2 (human)) of 8.92%. The residual activity (MAP4K4 (human)) was 83.8%, the residual activity (SRMS (human)) was 96.5% and the residual activity (CAMK2G (human)) was 104%. It also gave a residual activity (NEK9 (human)) of 82.2%, a residual activity (IKBKB (human)) of 105% and a residual activity (PTK2 (human)) of 95.5%. It also gave a residual activity (MUSK (human)) of 83.1%, a residual activity (OXSR1 (human)) of 88.8% and a residual activity (CDC42BPA (human)) of 97.5%. It also gave a residual activity (MST4 (human)) of 64.2%, a residual activity (ULK1 (human)) of 62.5% and a residual activity (NEK7 (human)) of 99%. For the same compound, the residual activity (STK3 (human)) was 34.3%, the residual activity (IKBKE (human)) was 95.9% and the residual activity (DYRK1B (human)) was 87.6%. It also gave a residual activity (MAPK9 (human)) of 93.7%, a residual activity (GSK3B (human)) of 22% and a residual activity (ROCK2 (human)) of 18.6%. For the same compound, the residual activity (NEK11 (human)) was 95.8%, the residual activity (EPHA1 (human)) was 73.7% and the residual activity (MATK (human)) was 104%. It also gave a residual activity (PAK1 (human)) of 89.5%, a residual activity (MARK1 (human)) of 64.1% and a residual activity (ADRBK1 (human)) of 97.3%. The residual activity (RET (human)) was 54.1%, the residual activity (NUAK1 (human)) was 3.29% and the residual activity (CAMK1G (human)) was 101%.

In the case of `COc1cc2ncnc(Nc3ccc(F)c(Cl)c3)c2cc1OCCCN1CCOCC1`, the residual activity (PIM2 (human)) is reported as 96.2%, the residual activity (MET (human)) is reported as 92.4% and the residual activity (EPHA7 (human)) is reported as 74.3%. It also gave a residual activity (PTK6 (human)) of 77.2%, a residual activity (TSSK2 (human)) of 91.5% and a residual activity (PRKCD (human)) of 106%. For the same compound, the residual activity (CAMK2D (human)) was 92.4%, the residual activity (FRK (human)) was 97.9% and the residual activity (RPS6KB2 (human)) was 101%. It also gave a residual activity (STK11 (human)) of 106%, a residual activity (PTK2B (human)) of 98.9% and a residual activity (TAOK2 (human)) of 106%. It also gave a residual activity (MAP4K4 (human)) of 97.8%, a residual activity (SRMS (human)) of 96.4% and a residual activity (CAMK2G (human)) of 128%. For the same compound, the residual activity (NEK9 (human)) was 99.3%, the residual activity (PAK3 (human)) was 106% and the residual activity (IKBKB (human)) was 86.5%. For the same compound, the residual activity (PTK2 (human)) was 103%, the residual activity (MUSK (human)) was 98.1% and the residual activity (OXSR1 (human)) was 101%. The residual activity (CSNK1G2 (human)) was 98.1%, the residual activity (CDC42BPA (human)) was 87.8% and the residual activity (MST4 (human)) was 106%. The residual activity (ULK1 (human)) was 93%, the residual activity (NEK7 (human)) was 96.9% and the residual activity (STK3 (human)) was 93.6%. The residual activity (IKBKE (human)) was 89.9%, the residual activity (DYRK1B (human)) was 91.9% and the residual activity (MAPK9 (human)) was 95.5%. The residual activity (GSK3B (human)) was 100%, the residual activity (ROCK2 (human)) was 90.8% and the residual activity (NEK11 (human)) was 109%. The residual activity (EPHA1 (human)) was 87.4%, the residual activity (MATK (human)) was 86.4% and the residual activity (PAK1 (human)) was 104%. The residual activity (MARK1 (human)) was 116%, the residual activity (ADRBK1 (human)) was 93.3% and the residual activity (RET (human)) was 76.9%. The residual activity (NUAK1 (human)) was 99.1% and the residual activity (CAMK1G (human)) was 103%.

Compound `CC(C)(C)c1nc2c3ccc(F)cc3c3c(=O)[nH]ccc3c2[nH]1` has a residual activity (PIM2 (human)) of 90.8%, a residual activity (EPHA7 (human)) of 96% and a residual activity (PTK6 (human)) of 88%. It also gave a residual activity (TSSK2 (human)) of 92.5%, a residual activity (PRKCD (human)) of 43.6% and a residual activity (CAMK2D (human)) of 59.4%. The residual activity (FRK (human)) was 104%, the residual activity (RPS6KB2 (human)) was 102% and the residual activity (STK11 (human)) was 58.4%. The residual activity (PTK2B (human)) was 48.4%, the residual activity (MAP4K4 (human)) was 38.4% and the residual activity (SRMS (human)) was 98.7%. For the same compound, the residual activity (CAMK2G (human)) was 72.8%, the residual activity (NEK9 (human)) was 71.7% and the residual activity (PAK3 (human)) was 90.1%. The residual activity (IKBKB (human)) was 52.1%, the residual activity (PTK2 (human)) was 35.3% and the residual activity (MUSK (human)) was 81.7%. For the same compound, the residual activity (OXSR1 (human)) was 100%, the residual activity (CSNK1G2 (human)) was 100% and the residual activity (CDC42BPA (human)) was 95.7%. The residual activity (MST4 (human)) was 70.9%, the residual activity (ULK1 (human)) was 12.8% and the residual activity (NEK7 (human)) was 76.5%. It also gave a residual activity (STK3 (human)) of 5.45%, a residual activity (IKBKE (human)) of 25.4% and a residual activity (DYRK1B (human)) of 88.2%. It also gave a residual activity (MAPK9 (human)) of 31.1%, a residual activity (GSK3B (human)) of 95.1% and a residual activity (ROCK2 (human)) of 70.7%. For the same compound, the residual activity (NEK11 (human)) was 92.4%, the residual activity (EPHA1 (human)) was 80.5% and the residual activity (MATK (human)) was 102%. For the same compound, the residual activity (PAK1 (human)) was 82.1%, the residual activity (MARK1 (human)) was 40.2% and the residual activity (FES (human)) was 78%. It also gave a residual activity (ADRBK1 (human)) of 98.5%, a residual activity (RET (human)) of 18.3% and a residual activity (NUAK1 (human)) of 3.04%. For the same compound, the residual activity (CAMK1G (human)) was 95.3%.
